Data on 90 compounds can be found in a melting point compilation (Tetko et al.; mined from patent text by program, amines drawn as free bases though some values may be those of a salt).

In turn, `CCOC(=O)c1cnc2sc(C)c(C)n12` yielded a melting point of 60 to 61 °C.
In the case of `CCCOc1ccc2cc(-c3ccc4c(c3)C=C(C(=O)Nc3ccc(CN(C)C5CCOCC5)cc3)CCS4(=O)=O)oc2c1`, the melting point is 215 to 216 °C.
On to `Oc1ccc2ccc(-c3ccccc3)cc2c1`, for which the melting point stood at 205 °C.
The value for `O=C1NCc2c1c(O)nc1ccccc21` was 340 to 350 °C.
In the case of `OC(COCc1ccccc1)C(O)COCc1ccccc1` (single isomer, unassigned; (+)), the melting point lay in the range of 44 to 45 °C.
The value for `CC(C)c1nn(-c2ccc(F)cn2)cc1CCCO` was 78 to 79 °C; that for `COc1nc(CCc2cc(Br)ccc2OCc2ccccc2)ccc1C(=O)O` was 141 to 143 °C; that for `CC1=CC(=O)C=C2CC(C)C3C4CCC(=O)C4(C)CCC3C12C` (stereo not given) was 148 to 151 °C.
The compound `CC(C)(C)c1cc(C(=O)Nc2cccc(C(=O)O)c2)cc(C(C)(C)C)c1O` registered a melting point of 279 to 280 °C.
Under `CCOC(=O)CNC(=O)c1nc2ccc(NCCCN3CCC(OC(c4ccccc4)c4ccccc4)CC3)nn2c1C` stands 158 to 160 °C; under `Cc1cc(-n2nc(C(N)=O)nc2-c2ccccc2)ccc1F`, 123 to 126 °C; under `CC(C)C=Cc1c(C(C)C)nc(C(C)C)c(CO)c1-c1ccc(F)cc1`, 112 °C.
Regarding `O=S(=O)(Cc1ccccc1)c1c[nH]c2ccccc12`, the melting point lay in the range of 153 to 155 °C.
The value for `CCOC(=O)C1=C(C)NC(C)=C(C(=O)OCC)C1c1ccc(Br)cc1` was 164 to 165 °C.
Under `CC(C)(C)CN(NC(=O)c1ccccc1)C(=O)c1ccccc1` stands 237 to 239 °C; under `COc1cc(OC)c2c(=O)[nH]c(-c3cc(C)c(OCCN4CCN(C(C)=O)CC4)c(C)c3)nc2c1`, 213 to 214 °C; under `CCCCCC(=O)N1C(CCCCC)NC(=O)CC1C(=O)O` (stereo not given), 55 to 56 °C.
The value for `CCc1noc(-c2cn(-c3ccc(OC)cc3)cn2)n1` was 147 to 148 °C; that for `COc1cccc(C(CNC(=O)Cc2c(Cl)cncc2Cl)c2ccccc2)c1` (stereo not given) was 142 to 143 °C; that for `C[Si](C)(C)CCCSCCCNC(=O)n1cc(F)c(=O)[nH]c1=O` was 105 to 106 °C.
The compound `CNC(=O)CCCCCCCCn1ccnc1` gave a melting point of 64 to 66 °C.
Under `COc1cc2c(cc1Nc1ncc(Cl)c(Nc3cc(C#N)ccc3OC)n1)CCN(CC(=O)N(C)C)CC2` stands 86 to 105 °C; under `Cc1cc(F)ccc1-c1nc(OCCO)nc2c1CNC(=O)N2c1c(F)cccc1F`, 172 to 175 °C; under `CCCCn1c(=O)c2nc(C(=O)O)cn2c2ccccc21`, 220 to 222 °C.
`Cc1ccc(-c2cc3c4cc(C)ccc4n(C)c3n(C)c2=O)c(C)c1` showed a melting point of 150 °C.
The value for `CCCCSc1ccc2[nH]c(=O)oc(=O)c2c1` was 196 to 200 °C; that for `COc1ccc(NC(C)CC(=O)NC(=O)OC(C)(C)C)cc1` (stereo not given) was 70 to 71 °C; that for `O=C/C=C/C=C/c1ccc(OCC(F)(F)C(F)F)cc1` was 53 to 55 °C.
Under `CCc1c(OC)nc(OC)nc1C(=O)c1cc(C)cc(C=CC#N)c1` stands 165 to 166 °C; under `O=C(O)Cc1coc2cc(OCc3ccccc3OCc3ccc(C(F)(F)F)cc3)ccc12`, 126 to 127 °C; under `ON=C(Cc1ccccc1)c1ccccc1`, 94 to 96 °C.
The value for `COc1ccc(C=Cc2nc3c(c(=O)n(C)c(=O)n3C)n2C)cc1OC` was 230 to 232 °C.
Take `CN1CCC(c2c[nH]c(-c3ccc(F)cc3)c2-c2ccncc2)=CC1Cc1ccccc1` (stereo not given): the melting point lay in the range of 198 to 200 °C.
The value for `CN(C)C(=O)c1cc2c(c(C(=O)O)c1)OC(c1ccccc1)(c1ccccc1)O2` was 207 to 208 °C.
Under `CCn1c(=O)c(-n2c(C(N)=O)nnc2-c2ccc(C#N)cc2)c(C)n(-c2cccc(C(F)(F)F)c2)c1=O` stands 256 °C; under `Cc1c(Nc2c(C#N)cnc3scc(CO)c23)ccc2[nH]ccc12`, 230 °C.
Under `c1ccc(C(Oc2ccc(-c3nc(COc4ccc(CCCn5ccnc5)cc4)co3)cc2)c2ccccc2)cc1` stands 106 to 107 °C; under `CCC(n1cncn1)C(O)(Cn1cncn1)c1c(F)cccc1F` (stereo not given), 110 to 111 °C; under `COC1=NS(=O)(=O)N(C)C(OCCCCc2ccccc2)=N1`, 74 to 78 °C.
Regarding `Cc1ccc(-c2c(NS(=O)(=O)c3ccc(C(C)(C)C)cc3)ncnc2OCCOc2ncc(CCc3ccccc3)cn2)cc1`, the melting point was in the range of 158 to 160 °C.
The value for `COCN(c1cccc2cc(-c3ncnn3C)n(COC)c12)S(=O)(=O)c1cccs1` was 110 to 111 °C; that for `Cn1nnc2ccc(C(c3ccc(Cl)cc3)n3cncn3)cc21` (stereo not given) was 130 to 135 °C; that for `COc1cc2c(-c3ccnc(Cl)c3)c(CO)c(CO)cc2cc1OC(C)C` was 129 to 131 °C.
The value for `COc1ccc(C2=CCN(Cc3n[nH]c4c(F)c(F)ccc34)CC2)cc1` was 195 to 197 °C; that for `CN(C)c1ccc2c(c1)CC(N1CCN(CCN3CCOC3=O)CC1)c1ccccc1S2` (stereo not given) was 168 to 170 °C; that for `O=C(Nc1ccccc1)C(CBr)CBr` was 143 to 144 °C.
Under `Cc1nnc(-c2ccccc2F)n2nc(OCc3ncnn3C)c(-c3ccsc3)c12` stands 124 to 129 °C.
Compound `O=Cc1c(OCCCCC(=O)O)ccc(C(=O)O)c1O` had a melting point of 165 to 166 °C.
The value for `CC1(C)CCN(Cc2ccc(COc3cccc4c3CN(C3CCC(=O)NC3=O)C4=O)cc2)CC1` (stereo not given) was 168 to 170 °C; that for `O=Cc1ccc2c(c1)Sc1ccc(F)cc1C=C2` was 137 to 139 °C; that for `CC(=O)Nc1nc(NC(C)=O)nc(-c2ccc(S(=O)(=O)c3ccccc3)cc2)n1` was over 260 °C.
In turn, `COc1ccc(-n2c(CC(=O)O)c(C(=O)O)c3cc(Oc4cccc(C(F)(F)F)c4)ccc32)cc1` displayed a melting point of 210 °C.
The value for `CCCCCCCCCCCCc1cnn(C(C(=O)Nc2c(OC)cc(OC)cc2OC)c2ccccc2)c1` (stereo not given) was 77 to 79 °C.
The value for `O=C(NO)c1cc(Oc2ccc(C(F)(F)F)cc2Cl)ccc1O` was 188 to 191 °C; that for `O=C(O)c1cccc(-c2ncn(-c3ccc(-c4ccccc4)cc3)n2)c1` was 263 to 265 °C.
The value for `C#CCn1c(=O)c2ccccc2c(=O)c2ccccc21` was 117 to 118 °C; that for `CCONC(=O)c1cc(Br)c(Br)s1` was 117 to 119 °C.
`O=c1[nH]c2ccccc2c2ccnn12` gave a melting point of 253 to 254 °C.
Under `COCCN1CC(=O)C(C#N)=C1C#N` stands 108 to 110 °C; under `CON1CCC2(CC1)NC(=O)C(Cl)(c1cc(C)ccc1C)C2=O` (stereo not given), 142 to 144 °C; under `CCCCC(=N)NC(=O)Nc1ccccc1`, 156 °C.
`O=C(CCCCCNC(=O)[C@H](Cc1c[nH]c2ccccc12)NC(=O)CCCc1c[nH]c2ccccc12)NO` gave a melting point of 94 to 96 °C.
The value for `COc1ccc(-c2nc3ncn(C)c(=S)n3n2)cc1` was over 300 °C.
`CCCCOC(=O)c1ccc(Nc2ncc(C(=O)OCC)c(=O)[nH]2)cc1`: the melting point is 281 to 283 °C.
The value for `c1cc2cc(-n3cnnc3)ncc2[nH]1` was 254 to 257 °C; that for `CC(=O)NCCc1c(-c2ccccc2)oc2ccc3c(c12)OCCO3` was 192 °C.
Consider `Nc1nc(NCCC2CCCCC2)nc2c1ncn2C1OC(CO)C(O)C1O` (stereo not given), for which the melting point fell in the range of 142 to 145 °C.
Under `CN(C)C(=O)c1ccc(N)cc1S(=O)(=O)NC(C)(C)C` stands 205 to 208 °C; under `COc1cccc(-c2cncc(OC3SCC(O)C(O)C3O)c2)c1` (stereo not given), 200 °C.
Under `Cn1nnnc1SCCCCN1C(=O)c2ccccc2C1=O` stands 92 to 93 °C; under `C=CCC1=C(C)C(OC(=O)C2C(C=CC(C)=O)C2(C)C)CC1=C` (stereo not given), under 50 °C.
As for `CCOC(=O)C(=CNc1sc(I)cc1C(=O)OC)C(=O)OCC`, the melting point lay within 163 to 164 °C.
The value for `CC(=O)Nc1ccc(CC[C@](O)(CC(=O)O)C(C)C)cc1` was 119 to 120 °C; that for `CC(C#N)c1ccc2oc(=S)[nH]c2c1` (stereo not given) was 173 to 176 °C; that for `O=C(CS(=O)Cc1ccc([N+](=O)[O-])cc1)NO` (stereo not given) was 227 °C.
Under `Cn1c(=O)c2c(Cl)cc(Cl)cc2n(Cc2ccccc2)c1=O` stands 166 to 169 °C; under `COC(=O)c1ccc(N2CCN(C)CC2)cc1`, 117 to 119 °C.
Under `O=C(O)c1ccc(-c2ccc(Cl)cc2)c(O)c1` stands 199 °C; under `CCn1cc(C(=O)O)c(=O)c2cc(F)c(N3CCNC(c4cc(C)cs4)C3)cc21` (stereo not given), 230 °C; under `CC/C(=C(\c1ccc(/C=C/C(=O)O)cc1)c1ccc(OC(=O)c2cccs2)cc1)c1ccccc1`, 175 to 176 °C.
As for `N#Cc1ccc2nccn2c1`, the melting point was 166 to 167 °C.
Compound `CCOC(=O)/C=C/C=C/c1ccc(OC(C)C)cc1` had a melting point of 64 to 65 °C.
The value for `C/C(NCC(C)(C)C)=C(\C#N)C(N)=S` was 143 to 144 °C.
The value for `CCC(C)n1cc(Cl)nc(N2CCc3cc(OC)cc(C)c32)c1=O` (stereo not given) was 176 to 178 °C.
Under `Cc1ccc2c(c1)c1cc(-c3cc(F)cc(F)c3)c(=O)n(C)c1n2C` stands 240 °C; under `CCc1cc(C)nc2c(C)ccc([N+](=O)[O-])c12`, 89 to 90 °C; under `COC(=O)CCn1c(=O)n(CCN2CCN(c3ccccc3C)CC2)c(=O)c2cscc21`, 149 to 150 °C.
Compound `CCCCCCCCCCCCn1nnc(C(C(=O)O)c2ccccc2)n1` (stereo not given) displayed a melting point of 55 to 57 °C.
Under `COc1cc2ncnc(-c3nnn[nH]3)c2cc1OC` stands 207 °C.
As for `C[C@@H](O)[C@](O)(Cn1cncn1)c1ccc(F)cc1F` (racemic), the melting point is 115 to 117 °C.

By melting point is commonly meant the temperature of the solid-liquid transition.
